The values below come from patent US5817651A, “3-arylcarbonyl-1-(C-attached-N-heteryl)-1H-indoles” (Sanofi, priority 1997, dated 1998).

Where a name gives a salt, the structure may show the parent alone. Read-outs that look alike come from different tables or passages of the source.

Holding throughout (assay type): in vivo
Experiment [1] relates to acetylcholine-induced abdominal constriction. Briefly: acetylcholine-induced abdominal constriction test (ACH). The conditions noted are these: mice; for ED50: Mus musculus. The text has this: J. Pharmacol. Chemotherap. 32, 295 (1968); a modification of the anti-bradykinin test, which is also a primary analgesic screening procedure, described by Berkowitz et al., J. Pharmacol. Exptl. Therap. 177, 500-508 (1971), Blane et al., J. Pharm. Pharmacol. 19, 367-373 (1967), Botha et al., Eur. J. Pharmacol. 6, 312-321 (1969) and Deffenu et al., J. Pharm. Pharmacol. 18, 135 (1966); and the Randall-Selitto analgesic test described by Randall and Selitto, Arch. Int. Pharmacodyn., 111, 409-419 (1957).
Data in the developing adjuvant arthritis (AA) and plasma fibronectin (FN) assays are expressed as percent inhibition, i.e. inhibition of non-injected paw inflammation (NIP) and injected paw (RPV) and lowering of plasma fibronectin, the asterisks * and ** indicating statistical significance at the p<0.01 and p<0.05 levels, respectively. […] Non-statistically significant results are recorded as "------ ". In the acetylcholine-induced abdominal constriction test, the test compounds were administered either as suspensions in gum tragacanth (GT) or as aqueous solutions prepared by addition of just sufficient dilute aqueous methanesulfonic acid (MS) or dilute aqueous lactic acid (LA) to dissolve the compound. The compounds are identified by the example number above where their preparations are described. All data in the anti-bradykinin, rat writhing and Randall-Selitto tests were obtained on oral administration.

Experiment [2] relates to acetic acid-induced writhing. Briefly: acetic acid-induced writhing assay in the rat (RW). The conditions noted are these: for RW ED50 / ED50: oral administration; for ED50: Rattus norvegicus, po; for RW percent inhibition at dose 30: dose level 30. On the procedure:
(§1) Data in the developing adjuvant arthritis (AA) and plasma fibronectin (FN) assays are expressed as percent inhibition, i.e. inhibition of non-injected paw inflammation (NIP) and injected paw (RPV) and lowering of plasma fibronectin, the asterisks * and ** indicating statistical significance at the p<0.01 and p<0.05 levels, respectively. Compounds are considered active at p<0.05 level. Non-statistically significant results are recorded as "------ ". In the acetylcholine-induced abdominal constriction test, the test compounds were administered either as suspensions in gum tragacanth (GT) or as aqueous solutions prepared by addition of just sufficient dilute aqueous methanesulfonic acid (MS) or dilute aqueous lactic acid (LA) to dissolve the compound. The compounds are identified by the example number above where their preparations are described. All data in the anti-bradykinin, rat writhing and Randall-Selitto tests were obtained on oral administration.
(In general: Writhing tests count abdominal constrictions after an irritant is injected.)

The test system of experiment [3] is adjuvant induced arthritis. Briefly: developing adjuvant arthritis (AA) assay. The conditions noted are these: arthritic rats; printed * = p<0.01, ** = p<0.05. On the procedure: Antirheumatic and anti-inflammatory activities of the compounds of the invention were determined using the developing adjuvant arthritis assay in rats and the plasma fibronectin assay in arthritic rats. The developing adjuvant arthritis assay was used in conjunction with the plasma fibronectin assay as a primary screening method in the evaluation of compounds for potential use as disease modifying anti-rheumatic drugs. The procedure used to induce arthritis in rats is a modification of the methods published by Pearson, J. Chron. Dis. 16, 863-874 (1973) and by Glenn et al., Amer. J. Vet. Res. 1180-1193 (1965). Adjuvant induced arthritis bears many of the traits of rheumatoid arthritis. It is a chronic, progressive, deforming arthritis of the peripheral joints, with a primary mononuclear cell response consisting of bone and joint space invasion by pannus. In order to detect disease modifying anti-rheumatic drug activity, drug treatment is started before the disease has become irrevocably established. Since such drugs are not designed to be administered prophylactically, drug treatment of adjuvant arthritis is initiated at a time when the disease is developing but is not yet irreversible. Animals develop significant systemic arthritic disease which can be measured by swelling of the non-injected rear paw (NIP) 15 to 20 days following an initial injection on day 1 of complete Freund's adjuvant into the right hindfoot paw.
as §1

The mark [4] stands for this setting: Table 9, Examples, no route marked in the cell, read-out: ACH ED50.
Setting [5] is: Table 9, Examples, no route marked in the cell.
Where [6] appears, read: iv, Table 9, iv, read-out: ACH ED50 (iv).

As for `COc1ccc(C(=O)c2c(C)n(CC3CCCN3C)c3ccccc23)cc1` (single isomer, unassigned) [2E(1), (1)1-(1-methyl-2-pyrrolidinylmethyl)-2-methyl-3-(4-methoxybenzoyl)-1H-indle hydrochloride], the “ACH ED50” value in experiment [1] (Table 9, Examples, no route marked in the cell, hydrochloride) was found to be 35 mg/kg. The “RW ED50” value in experiment [2] (hydrochloride) is 13 mg/kg.

The ED50 is the midpoint of the dose-response relation. Turning to `COc1ccc(C(=O)c2c(C)n(CC3CCCN3C)c3ccccc23)cc1` (single isomer, unassigned) [2E(d), (d)1-(1-methyl-2-pyrrolidinylmethyl)-2-methyl-3-(4-methoxy-benzoyl)-1H-inole hydorochloride], in experiment [1] (setting [4]), the ED50 was found to be 47 mg/kg. The “ACH ED50” value in experiment [1] (setting [5]) was found to be 36 mg/kg. In experiment [2], the “RW ED50” value came out at 30 mg/kg.

In the case of `COc1ccc(C(=O)c2c(C)n(C3CCCN(C)C3)c3ccccc23)cc1` (centres unmarked) [2AG(a)], the “ACH ED50” value in experiment [1] (Table 9, Examples, no route marked in the cell, listed as 2AG(d)) worked out at 22 mg/kg. This compound gave an ED50 in experiment [2] of 9 mg/kg.

On to `COc1ccc(C(=O)c2c(C)n(CC3CN(C)CCO3)c3ccccc23)cc1` (centres unmarked) [Example 1A, 1-[(4-methyl-2-morpholinyl)methyl]-2-methyl-3-(4-methoxybenzoyl)-1H-indolehydrochloride], for which the ED50 in experiment [1] (setting [4]) came to 9 mg/kg; in experiment [2], 3 mg/kg.

As for `Cc1c(C(=O)c2ccccc2)c2ccccc2n1CC1CN(C)CCO1` (centres unmarked) [Example 1C], the ED50 was determined as 21 mg/kg in experiment [1] (setting [4]) and 10 mg/kg in experiment [2].

Consider `Cc1c(C(=O)c2ccccc2F)c2ccccc2n1CC1CN(C)CCO1` (centres unmarked) [Example 1F], for which the results for the ED50 in experiment [1] (setting [4]) and in experiment [2] were 22 mg/kg and 26 mg/kg, respectively.

For `COc1ccc(C(=O)c2cn(CC3CCCN(C)C3)c3ccccc23)cc1` (centres unmarked) [Example 1I], in experiment [1] (setting [6]), the ED50 came to 5 mg/kg. Also, the “ACH ED50 (MS)” value in experiment [1] (Table 9, aqueous solution with dilute methanesulfonic acid (MS)) is listed as 38 mg/kg. This compound also showed an ED50 in experiment [2] of 32 mg/kg. Moreover, in experiment [3], the “NIP: percent inhibition of non-injected paw inflammation” value turned out to be 61% and the “RPV: percent inhibition of injected paw” value stood at 19%.

`Cc1c(C(=O)c2ccccc2F)c2ccccc2n1CC1CCCN(C)C1` (centres unmarked) [Example 1J]: the ED50 in experiment [1] (setting [4]) came out at 32 mg/kg; in experiment [2], 45 mg/kg.

Turning to `Cc1c(C(=O)c2ccccc2)c2ccccc2n1CC1CCCN(C)C1` (centres unmarked) [Example 1K], the ED50 in experiment [1] (setting [4]) amounted to 33 mg/kg. The ED50 in experiment [2] was 40 mg/kg. Besides, in experiment [3], the “NIP: percent inhibition of non-injected paw inflammation” value was 76% and the “RPV: percent inhibition of injected paw” value was 50%.

Turning to `CCN1CCCC(n2c(C)c(C(=O)c3ccc(OC)cc3)c3ccccc32)C1` (centres unmarked) [Example 2AE], the ED50 in experiment [1] (setting [4]) came out at 26 mg/kg. Besides, the “RW percent inhibition at dose 30” value in experiment [2] (oral) is reported as 15%.

Consider `COc1ccc(C(=O)c2c(C)n(CC3=CCCN(C)C3)c3ccccc23)cc1` [Example 2AF], for which the ED50 in experiment [1] (setting [4]) was found to be 11 mg/kg. This compound returned an ED50 in experiment [2] of 15 mg/kg. Moreover, in experiment [3], the “NIP: percent inhibition of non-injected paw inflammation” value stood at 93% and the “RPV: percent inhibition of injected paw” value was 78%.

`COc1ccc(C(=O)c2c(C)n(CC3CCN(C)C3)c3ccccc23)cc1` (centres unmarked) [Example 2AI]: the ED50 in experiment [1] (setting [4]) was found to be 11 mg/kg; in experiment [2], 4 mg/kg. Besides, the “ACH ED50” value in experiment [1] (setting [5]) was 13 mg/kg.

Turning to `Cc1c(C(=O)c2ccccc2F)c2ccccc2n1CC1CCCN1C` (centres unmarked) [Example 2AJ], the ED50 in experiment [1] (setting [4]) worked out at 72 mg/kg; in experiment [2] it was 6 mg/kg. For the same compound, in experiment [3], the “NIP: percent inhibition of non-injected paw inflammation” value is listed as 31%.

Consider `COc1ccc(C(=O)c2c(C)n(CCC3CCCCN3C)c3ccccc23)cc1` (centres unmarked) [Example 2G], for which the ED50 was determined as 26 mg/kg in experiment [1] (setting [4]) and 3 mg/kg in experiment [2]. The “NIP: percent inhibition of non-injected paw inflammation” value in experiment [3] amounted to 93%. The “RPV: percent inhibition of injected paw” value in experiment [3] stood at 73%.

`COc1ccc(C(=O)c2c(C)n(CC3CCCN(C)C3)c3ccc(F)cc23)cc1` (centres unmarked) [Example 2I]: the ED50 in experiment [1] (setting [4]) is 40 mg/kg. In addition, the ED50 in experiment [2] amounted to 5 mg/kg. Further, in experiment [3], the “NIP: percent inhibition of non-injected paw inflammation” value is reported as 70% and the “RPV: percent inhibition of injected paw” value is reported as 51%.

As for `CCc1c(C(=O)c2ccc(OC)cc2)c2ccccc2n1CC1CCCN(C)C1` (centres unmarked) [Example 2K], the ED50 is 16 mg/kg in experiment [1] (setting [4]); 11 mg/kg in experiment [1] (setting [6]); 10 mg/kg in experiment [1] (sc, Table 9, sc, read-out: ACH ED50 (sc)); 23 mg/kg in experiment [2]. Besides, the “NIP: percent inhibition of non-injected paw inflammation” value in experiment [3] turned out to be 68%. Also, the “RPV: percent inhibition of injected paw” value in experiment [3] worked out at 54%.

`CCN1CCCC(Cn2c(C)c(C(=O)c3ccc(OC)cc3)c3ccccc32)C1` (centres unmarked) [Example 2L]: the values for the ED50 in experiment [1] (setting [4]) and in experiment [2] were 11 mg/kg and 2 mg/kg, respectively.

Take `CSc1ccc(C(=O)c2c(C)n(CC3CCCN(C)C3)c3ccccc23)cc1` (centres unmarked) [Example 2O]: the ED50 was 8 mg/kg in experiment [1] (setting [4]) and 5 mg/kg in experiment [2]. In experiment [3], the “NIP: percent inhibition of non-injected paw inflammation” value came to 65%. In addition, the “RPV: percent inhibition of injected paw” value in experiment [3] is 44%.

Consider `COc1ccc(C(=O)c2c(C)n(CC3CN(C)CCN3C)c3ccccc23)cc1` (centres unmarked) [Example 2V], for which the ED50 in experiment [1] (setting [4]) is 20 mg/kg; in experiment [2] it was 15 mg/kg.

`COc1ccc(C(=O)c2c(C)n(C3CCCCN(C)C3)c3ccccc23)cc1` (centres unmarked) [Example 2X]: the ED50 in experiment [1] (setting [4]) is 29 mg/kg. In addition, the “RW percent inhibition at dose 30” value in experiment [2] (oral) is reported as 54%. For the same compound, in experiment [2] (oral, dose level 100), the “RW percent inhibition at dose 100” value turned out to be 82%. For the same compound, the “NIP: percent inhibition of non-injected paw inflammation” value in experiment [3] is listed as 43%.

For `COc1ccc(C(=O)c2c(C)n(CC3CSCCN3C)c3ccccc23)cc1` (centres unmarked) [Example 3A, 1-[(4-methyl-3-thiomorpholinyl)methyl]-2-methyl-3-(4-methoxybenzoyl)-1H-indole], the ED50 in experiment [1] (setting [4]) came out at 33 mg/kg; in experiment [2] it was 13 mg/kg.

On to `COc1ccc(C(=O)c2c(C)n(CC3CCCNC3)c3ccccc23)cc1` (centres unmarked) [Example 4B], for which the ED50 in experiment [1] (setting [4]) worked out at 15 mg/kg. The same compound showed an ED50 in experiment [2] of 10 mg/kg. Besides, in experiment [3], the “NIP: percent inhibition of non-injected paw inflammation” value is recorded as 91% and the “RPV: percent inhibition of injected paw” value was determined as 79%.

`COc1ccc(C(=O)c2c(C)n(CC3CNCCN3)c3ccccc23)cc1` (centres unmarked) [Example 4C]: the median effective dose (ED50) was determined as 22 mg/kg in experiment [1] (setting [4]) and 20 mg/kg in experiment [2].

`CC(C1CCCN(C)C1)n1cc(C(=O)c2ccccc2F)c2ccccc21` (centres unmarked) [Example 4G]: the “ACH ED50” value in experiment [1] (setting [5]) is 19 mg/kg. In addition, the “RW ED50” value in experiment [2] is given as 7 mg/kg.

With `CC(C1CCCNC1)n1cc(C(=O)c2ccccc2F)c2ccccc21` (centres unmarked) [Example 4H], the “ACH ED50” value in experiment [1] (setting [5]) was 25 mg/kg. This compound registered an ED50 in experiment [2] of 4 mg/kg.

Consider `COc1ccc(C(=O)c2c(C)n(CC3(O)CCN(C)CC3)c3ccccc23)cc1` [Example 5, 2-methyl-3-(4-methoxybenzoyl)-1-[(1-methyl-4-hydroxy-4-piperidinyl)methyl]-1H-indole], for which the ED50 in experiment [1] (setting [4]) was found to be 23 mg/kg; in experiment [2], 9.1 mg/kg.

For `COc1ccc(C(=O)c2c(C)n(CC3CCCN3)c3ccccc23)cc1.Cl` (centres unmarked) [Example 8A, 2-methyl-3-(4-methoxybenzoyl)-1-[(2-pyrrolidinyl)methyl]-1H-indole hydrochloride], the ED50 was found to be 41 mg/kg in experiment [1] (setting [4]) and 25 mg/kg in experiment [2].

Consider `Cc1c(C(=O)c2ccc(N)cc2)c2ccccc2n1CC1CCCN(C)C1` (centres unmarked) [Example 9, 2-methyl-3-(4-aminobenzoyl)-1-[(1-methyl-3-piperidinyl)methyl]-1H-indole hydrochloride hemihydrate], for which the values for the ED50 in experiment [1] (setting [4]) and in experiment [2] were 12 mg/kg and 9 mg/kg, respectively.
